“Also recorded” adds a separate entry of the source.
Legend:
TC-1 cells = assay: TC-1 tumor cell model in C57Bl/6 mice; assay type: in vivo, mouse
Procedure: Animals were injected with 4×10^5 TC-1 cells subcutaneously into the flank of the animal. Five days later, animals received vehicle treatment with saline (n=6), or drug treatment with RLS-0122 (n=8) IV at 160 mg/kg 1×/day for 15 consecutive days. Animals were also evaluated for behavior and body condition scoring every 2 days for duration of the study. If scoring reached 7 or below, animals were assessed daily. A score of 5 or below was considered endpoint for euthanasia.
To evaluate the efficacy of RLS-0122 in an in vivo system, the inventors utilized the TC-1 tumor cell model in C57Bl/6 mice as previously reported (Roumenina et al., Cancer Immunol Res; 7(7) July 2019). […] When TC-1 cells are introduced into the flank of the mouse, very aggressive tumor formation occurs, resulting in 100% death in approximately 26 days. To test the efficacy of RLS-0122 on survival and quality of life in this model, animals were injected with 4×10^5 TC-1 cells subcutaneously into the flank of the animal. Five days later, animals received vehicle treatment with saline (n=6), or drug treatment with RLS-0122 (n=8) IV at 160 mg/kg 1×/day for 15 consecutive days. […] Animals were also evaluated for behavior and body condition scoring every 2 days for duration of the study. If scoring reached 7 or below, animals were assessed daily. A score of 5 or below was considered endpoint for euthanasia.

[1] = tested on: antibody-initiated complement activation (lysis of AB human red blood cells by type O serum); assay: ABO incompatibility hemolytic complement assay (CH50-type); assay type: cell-based; conditions: peptides 0.8 mg/ml (~0.5 mM), compared to parent peptide
Procedure: FIG. 1A-1B show PIC1 peptides' inhibition of complement activation in an ABO incompatibility assay. […] Inhibition of ABO incompatibility hemolysis in a CH50-type assay. Peptides are at a final concentration of 0.5 mM. Values are represented as a percent of the positive control, which consists of human 0 sera and AB red blood cells in GVBS^++ buffer. Data are the means of n=3 independent experiments±SEM.
For hemolytic complement assays, human red blood cells (RBCs) from type AB donors were purified, washed, and standardized to 1.0×10^9 cells/ml, as previously described. Human sera from type 0 donors at a 15% final concentration was combined with 0.5 mM of the peptides and the volume was brought up to 0.2 ml with GVBS^++ and 5.0×10^7 RBCs. The samples were incubated for 1 hour at 37° C. and then spun at 3,000 rpm for 5 minutes and the supernatant was collected and read at 412 nm. Values are represented as a percent of the positive control, which consists of human 0 sera and AB red blood cells in GVBS^++ buffer.
To assess the extent to which the peptide variants inhibit antibody-initiated complement activation, an ABO incompatibility ex vivo assay was utilized in which purified erythrocytes from a ‘type AB+’ donor are incubated with sera from a ‘type 0’ subject containing anti-A and anti-B antibodies. Peptides were tested at a concentration of 0.8 mg/ml (˜0.5 mM).

[2] = tested on: purified human Pan T-cells; assay: T-cell exhaustion protocol (repeated CD3/CD28 Dynabead stimulation); assay type: cell-based; conditions: ELISA, listed as RLS-0122
Procedure: Purified human pan-T-cells were subject to stimulation with Dynabeads every 48 hours over the period of 8 days with cells also receiving PIC1 peptides (2 mg/ml) at each stimulation. Cells not receiving Dynabeads were run in parallel to assess background levels of Caspase 3/7 signal. At the eighth day, cells were harvested, and the levels of Caspase 3/7 determined by ELISA.
Purified human pan-T-cells were subject to stimulation with Dynabeads every 48 hours over the period of 8 days with cells also receiving PIC1 peptides (2 mg/ml) at each stimulation. Cell supernatants were collected at each stimulation and levels of IL-2 and IFN-gamma assayed by ELISA.
T-cell exhaustion is a form of T-cell dysfunction that occurs in cancer. It is generally defined by poor effector function, reduction in cytokine release (e.g., IL-2, TNF-alpha, IFN-gamma), sustained expression of inhibitory receptors (e.g., PD-1, LAG-3, CD244, CD160) with the progressive loss of effector function due to overstimulation. Exhaustion can prevent optimal control of tumor growth. Exhausted T cells are prevalent in the tumor microenvironment (TME) and can lead to T-cell apoptosis. T-cell exhaustion is reversible and pharmaceutical inhibition of T-cell exhaustion has been considered a promising strategy by many cancer researchers. To ascertain if PIC1 peptides could reverse T-cell exhaustion and increase T cell viability and effector function, a T-cell exhaustion protocol was developed. To induce T-cell exhaustion, purified human Pan T-cells were stimulated with T-Activator CD3/CD28 Dynabeads and cells were washed and re-stimulated every 48 hours. PIC1 peptides were added to the cells after each stimulation with Dynabeads. After three to four stimulations, cells were harvested for readouts which consisted of assessing T-cell apoptosis by measuring Caspase 3/7 levels and production of cytokines IL-2 and IFN-gamma, which are indicative of T-cell functionality. […] To further evaluate if PIC1 peptides could restore T-cell functionality in cells that have undergone the exhaustion protocol, the inventors next assessed production of cytokines IL-2 and IFN-gamma. Supernatants from the cells after each stimulation was collected and the cytokines measured by ELISA. […] The lower level of IFN-gamma signal was consistently seen in this assay.

VEGF [3] = biological target: T1, VEGF (Homo sapiens, UniProt P15692); assay: VEGF binding ELISA plate-based assay; conditions: peptides 1 mg/ml
T1 construct: Promega (bioassay)
T1 sequence (P15692 27-191 isoform P15692-4): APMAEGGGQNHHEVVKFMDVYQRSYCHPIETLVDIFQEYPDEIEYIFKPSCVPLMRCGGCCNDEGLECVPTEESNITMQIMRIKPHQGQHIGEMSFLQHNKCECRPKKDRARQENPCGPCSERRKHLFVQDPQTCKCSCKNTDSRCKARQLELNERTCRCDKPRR
Procedure: A fixed amount of PIC1 peptides (1 mg/ml) were added to the plates followed by a rabbit polyclonal antibody that recognizes the peptides and then a secondary anti-rabbit antibody conjugated with HRP. The plate was then developed by addition of TMB as the substrate for the colorimetric assay.
(§1) Angiogenesis, or the formation of new blood vessels from the established vasculature, is an essential element in tumor growth and metastasis formation. Inhibiting tumor angiogenesis is considered a major therapeutic strategy in oncology. […] The bioluminescent signal is detected in a luminometer.

VEGF [4] = biological target: T1, VEGF; assay: VEGF Bioassay (Promega), VEGF signaling via VEGFR-2 (KDR); assay type: cell-based
From the text: Luminescence was detected in luminometer plate reader.
as §1

[5] = peptides 2 mg/ml, stimulation 2

**Q.** Which results are given for “IAdLILEP(Sar)CCQERAA (IALILEPXCCQERAA; D-Leu; sarcosine; MOD_RES (3)..(3) D-amino acid; MOD_RES (8)..(8) Sarcosine) [PA-0122]”?
**A.** median survival longer than vehicle (TC-1 cells; IV 160 mg/kg 1x/day for 15 consecutive days, p=0.0465): 8 days; quality of life (behavior and body condition scoring), in words (TC-1 cells; IV 160 mg/kg 1x/day for 15 days, significant on days 22-26 (p<0.05)): increased quality of life; inhibition of ABO incompatible hemolysis (complement inhibition), in words [1]: greater extent; inhibition of ABO incompatible hemolysis (complement inhibition), in words ([1]; listed as RLS-0122): potently block complement activation; Caspase 3/7 levels, in words ([2]; peptides 2 mg/ml at each stimulation, day 8): very low to undetectable levels; also recorded: reduced levels; IFN-gamma levels in cell supernatants, in words [2, 5]: detectable at stimulation 2; also recorded: increased levels; IL-2 levels in cell supernatants, in words [2, 5]: detectable IL-2 at stimulation 2; also recorded: increased levels; binding to VEGF, in words (VEGF [3]): binding with high affinity; inhibition of VEGF signaling via VEGFR-2 (luminescence), in words (VEGF [4]): did not inhibit signaling

Reference: patent US20230303623A1, “PEPTIDES AND METHODS OF USE” (REALTA LIFE SCIENCES, INC., priority 2020, published 2023)
